Earlier results in patent US20250261683A1, “ORAL COMPOSITION COMPRISING ENCAPSULATED PH ADJUSTING AGENT” (NICOVENTURES TRADING LIMITED, priority 2022, published 2025).

Legend:
[1] = descriptive statement
[2] = descriptive statement; isomerizes to trans-bixin

solubility in water [1] | solubility in fats and alcohols [1] | chemical stability when isolated [2] | SMILES
water-soluble | – | – | CC(/C=C/C=C(C)/C=C/C(=O)O)=C\C=C\C=C(C)\C=C\C=C(C)\C=C\C(=O)O (stereo in doubt) [norbixin, (2E,4E,6E,8E,10E,12E,14E,16E,18E)-4,8,13,17-tetramethylicosa-2,4,6,8,10,12, 14,16, 18-nonaenedioic acid]
insoluble | soluble | chemically unstable | COC(=O)/C=C/C(C)=C\C=C\C(C)=C\C=C\C=C(C)\C=C\C=C(C)\C=C\C(=O)O [bixin, (2E,4E,6E,8E,10E,12E,14E,16Z,18E)-20-methoxy-4,8,13,17-tetramethyl-20-oxoicosa-2,4,6,8,10,12,14,16,18-nonaenoic acid]
